Measured values reported in patent US6673798B2, “PDGF receptor kinase inhibitory compounds, their preparation, purification and pharmaceutical compositions including same” (Yissum Research Development Company of the Hebrew …, priority 1999, dated 2004).
Read-outs that look alike come from different tables or passages of the source.

Tests used:
PDGFβR = target: T1, PDGFβR (Mus musculus, UniProt P05622); assay: PDGFR autophosphorylation, purified receptor from Swiss 3T3 cell membranes (cell free); format: biochemical; conditions: for % of Control (percent autokinase activity): isolated PDGFβR; for IC50: isolated PDGFR from Swiss 3T3 cell membranes, read-out: IC50 (50% inhibition of phosphorylation)
T1 construct: A preparation of purified PDGFR from Swiss 3T3 cell membranes was used; endogenous in cells
T1 sequence (P05622 32-1098): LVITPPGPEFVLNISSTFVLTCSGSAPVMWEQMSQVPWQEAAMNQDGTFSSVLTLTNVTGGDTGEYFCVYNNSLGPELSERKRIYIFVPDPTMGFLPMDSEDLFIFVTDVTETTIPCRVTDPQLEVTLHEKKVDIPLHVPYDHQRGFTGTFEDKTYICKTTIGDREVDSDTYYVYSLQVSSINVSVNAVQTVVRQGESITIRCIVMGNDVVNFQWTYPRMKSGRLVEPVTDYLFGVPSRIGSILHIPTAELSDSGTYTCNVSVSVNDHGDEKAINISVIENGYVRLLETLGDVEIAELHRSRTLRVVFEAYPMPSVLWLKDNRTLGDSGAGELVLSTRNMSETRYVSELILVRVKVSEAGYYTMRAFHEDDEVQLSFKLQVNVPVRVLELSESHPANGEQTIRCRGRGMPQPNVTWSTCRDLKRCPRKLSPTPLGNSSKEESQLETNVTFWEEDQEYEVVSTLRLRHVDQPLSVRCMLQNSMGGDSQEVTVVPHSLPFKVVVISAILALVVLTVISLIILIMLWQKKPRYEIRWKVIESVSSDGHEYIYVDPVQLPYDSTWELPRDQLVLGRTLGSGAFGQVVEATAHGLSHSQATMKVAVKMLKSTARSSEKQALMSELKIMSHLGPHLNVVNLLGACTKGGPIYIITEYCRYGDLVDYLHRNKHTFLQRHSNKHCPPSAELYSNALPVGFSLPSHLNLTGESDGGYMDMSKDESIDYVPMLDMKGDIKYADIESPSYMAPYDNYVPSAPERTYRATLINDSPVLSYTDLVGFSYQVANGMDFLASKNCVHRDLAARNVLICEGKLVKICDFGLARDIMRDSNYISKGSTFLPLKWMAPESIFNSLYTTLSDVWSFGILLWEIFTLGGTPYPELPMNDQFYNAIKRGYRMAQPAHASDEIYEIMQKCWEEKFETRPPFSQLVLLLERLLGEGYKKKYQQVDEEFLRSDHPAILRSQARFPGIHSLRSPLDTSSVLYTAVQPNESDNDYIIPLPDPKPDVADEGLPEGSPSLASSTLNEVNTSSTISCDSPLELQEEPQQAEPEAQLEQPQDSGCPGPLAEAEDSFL
Protocol: In vitro effect of tyrphostins on purified PDGFR autophosphroylation: Membranes were prepared from confluent cultures of canine kidney epithelial cells (TRMP) or Swiss 3T3 cells as described. Further purification of the PDGF-βR was performed as described in [23]. Briefly, 2 μl kinase preparation were incubated for 20 minutes on ice in the presence of 2 μg/ml PDGF-BB in 20 μl of 50 mM Hepes (pH 7.4). Kinase reaction was executed for 10 minute on ice with 5 mM MnCl2, 1 mM vanadate, 10 μM [γ-^32P]ATP (2.5 μCi per reaction). The reaction was terminated by addition of 10 μl of a solution containing 6% SDS, 30% β-mercaptoethanol, 40% glycerol, and 0.5 mg/ml bromophenol blue. The samples were heated for 5 minutes at 95° C. and subjected to polyacrylamide gel electrophoresis in the presence of 0.4% SDS, using 7.5% polyacrylamide gels. The gels were stained, dried and subjected to autoradiographic analysis. For quantification of radioactivity in electrophoresis gels, a Phospho-Imager (Molecular Dynamics, Fuji, or Bio-Rad) was used according to the instructions of the manufacturer. To obtain autoradiograms, objects were exposed to X-ray film (Fuji RX or Kodak X-OMAT) with intensifying screens at −70° C.
Inhibition of PDGF-induced tyrosine phosphorylation by tyrphostins in vitro: A preparation of purified PDGFR from Swiss 3T3 cell membranes was used to assess and compare the inhibitory effects of tyrphostin compounds on tyrosine kinase activity. Various concentrations of the purified “transoid” isomers AG2033 and AG2043, were evaluated. Table 8 below presents IC50 values (50% inhibition of phosphorylation, μM) of AG2033 and AG2043. Data presents the potencies of the compounds with respect to PDGFR, as was determined using the isolated receptor (see experimental methods section above).
Kinase reactions, using an isolated PDGFβR preparation, in the presence of 0.03-3 μM tyrphostin, were conducted, utilizing [γ-^32P]ATP as probe. Densitometric evaluation, relative to control lacking the tyrphostin inhibitor (100%), results in the percent autokinase activity, presented in Table 8 and in the dose-response curves for the purified transoid isomers AG2033 (FIG. 6) and AG2043 (FIG. 7). Further comparison between the resulting autoradiogrms for each pair of geometrical isomers AG2033 and AG2034 (upper panel); AG2043 and AG2044 (lower panel), for their inhibitory activity towards PDGF-induced PDGFβR autophosphorylation (concentration range: 0.1-10 μM) in intact cells is presented in FIG. 8. […] Similar potency relation exists between the AG2043 and AG2044 isomers.

KDR = target: T2, KDR (Homo sapiens, UniProt P35968); assay: KDR receptor phosphorylation in intact PAEC cells; format: cell-based; conditions: intact PAEC cells expressing KDR, VEGF stimulated; read-out: IC50 (50% inhibition of phosphorylation) KDR
T2 construct: expressed in transfected cells; host or cells: porcine aortic endothelial cells (PAEC), stably transfected
T2 sequence (P35968 20-1356): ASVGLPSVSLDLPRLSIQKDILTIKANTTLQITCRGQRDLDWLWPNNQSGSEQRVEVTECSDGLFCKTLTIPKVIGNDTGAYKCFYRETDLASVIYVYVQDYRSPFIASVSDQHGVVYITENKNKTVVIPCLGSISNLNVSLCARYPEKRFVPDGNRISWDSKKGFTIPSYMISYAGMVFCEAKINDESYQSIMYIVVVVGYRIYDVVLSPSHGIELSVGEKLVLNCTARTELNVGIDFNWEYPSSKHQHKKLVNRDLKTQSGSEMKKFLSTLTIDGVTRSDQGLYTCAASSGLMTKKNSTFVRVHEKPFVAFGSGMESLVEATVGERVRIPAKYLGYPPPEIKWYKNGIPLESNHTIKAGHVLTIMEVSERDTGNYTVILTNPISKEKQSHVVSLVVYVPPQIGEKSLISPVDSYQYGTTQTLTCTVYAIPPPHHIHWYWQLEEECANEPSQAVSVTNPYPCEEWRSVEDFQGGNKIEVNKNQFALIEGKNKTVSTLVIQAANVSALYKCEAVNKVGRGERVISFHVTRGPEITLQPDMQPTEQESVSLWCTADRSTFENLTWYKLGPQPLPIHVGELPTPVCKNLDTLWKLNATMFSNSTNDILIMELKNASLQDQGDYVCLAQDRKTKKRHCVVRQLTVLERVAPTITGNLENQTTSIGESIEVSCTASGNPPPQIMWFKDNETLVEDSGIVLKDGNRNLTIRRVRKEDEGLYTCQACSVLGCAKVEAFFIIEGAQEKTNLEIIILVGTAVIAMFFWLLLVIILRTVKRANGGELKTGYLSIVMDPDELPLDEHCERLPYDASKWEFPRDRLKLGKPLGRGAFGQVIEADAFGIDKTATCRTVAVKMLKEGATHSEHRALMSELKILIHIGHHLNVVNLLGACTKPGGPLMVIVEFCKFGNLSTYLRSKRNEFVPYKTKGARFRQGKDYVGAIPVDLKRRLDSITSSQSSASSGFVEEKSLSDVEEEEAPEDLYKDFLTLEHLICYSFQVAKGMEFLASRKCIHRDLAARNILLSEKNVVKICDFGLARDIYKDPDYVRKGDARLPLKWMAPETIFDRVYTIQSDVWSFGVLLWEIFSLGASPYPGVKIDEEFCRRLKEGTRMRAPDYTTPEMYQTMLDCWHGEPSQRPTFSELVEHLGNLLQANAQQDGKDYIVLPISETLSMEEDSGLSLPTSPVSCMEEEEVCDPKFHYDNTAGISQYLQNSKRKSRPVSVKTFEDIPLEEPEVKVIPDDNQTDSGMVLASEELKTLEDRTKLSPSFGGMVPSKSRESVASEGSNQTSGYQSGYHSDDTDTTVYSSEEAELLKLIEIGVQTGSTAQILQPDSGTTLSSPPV
Protocol: (§1) Effect of tyrphostins on PDGF-induced PDGFR autophosphorylation in intact PAEC cells: PAEC cells, transfected with either PDGFR or KDR, cultivated in Ham's F-12 medium supplemented with 10% fetal calf serum (FCS), were synchronized for 20 hours in a medium containing 0.01% BSA. […] After stimulation, the cells were solubilized in Nonidet P-40 (1%) containing lysis buffer.
The analysis of KDR receptor phosphorylation was performed as follows. Cell lysates were subjected to immunoprecipitation using the KDR specific antiserum. The precipitates were subjected to polyacrylamide (7.5%) gel electrophoresis in presence of sodium dodecyl sulfate (SDS-PAGE) and were thereafter blotted onto a nitrocellulose membrane (Hybond C-EXTRA, Amersham). Phosphorylated proteins were detected by immunoblotting using the horseradish-peroxidase conjugated phosphotyrosine antibody RC20H (Transduction Laboratories), followed by chemoluminescence-based detection (ECL, Amersham) and autoradiography.

[1] = test system: human coronary artery SMC (HCASMC); assay: HCASMC migration (Boyden chamber); format: cell-based
Protocol: Human coronary artery endothelial cells (HCAEC) and human coronary artery smooth muscle cells (HCASMC) were purchased from Clonetics (Heidelberg), and grown in EBM medium (supplemented with EGM-MV SINGLE QUOTS®) or in SmBM medium (supplemented with SmGM-2 SINGLE QUOTS®), respectively (Clonetics).
Assessment of cell migration (Chemotaxis assay): The chemotactic response of HCASMC, PAEC/KDR and PAEC/PDGFR cells was assessed using the modified Boyden chamber (Neuro Probe, Inc.) and collagen-coated polycarbonate filters (Nucleopore) with pore diameters of 8 μm as previously described. Briefly, PAEC/KDR and PAEC/PDGFR cells were cultivated and assayed in Ham's F12 medium containing 10% FCS. HCASMC were cultivated in SmGM-2 (clonetics) and assayed in SmBM-WM containing 10% FCS and 0.1% BSA. To the medium in the lower part of the Boyden chamber, either VEGF or PDGF-BB (10 ng/ml, respectively) were added. AG2033 was added to both upper and lower chamber parts. Suspended cells were given 4 hours for migration, after a preincubation period of 15 minute in AG2033. The number of cells that migrated without PDGF-BB or VEGF stimulation was referred to as 100% migration (chemokinesis). The assay was performed in triplicate, and five medium-power fields were counted per well using a light microscope (Jenalab).
Further evaluation of HCASMC cells migration toward PDGD-BB, in the presence of purified “transoid” isomers, was conducted in a Boyden chamber (see experimental section, above).

PDGF β-receptor = PDGF β-receptor (Homo sapiens, UniProt P09619); assay: PDGF-induced PDGFR autophosphorylation in intact PAEC cells; format: cell-based; parameters: expressed in transfected cells; host or cells: porcine aortic endothelial cells (PAEC), stably transfected; conditions: intact PAEC cells expressing PDGFR, PDGF-BB stimulated; read-out: IC50 (50% inhibition of phosphorylation) PDGFR
Sequence of PDGF β-receptor (P09619 33-1106): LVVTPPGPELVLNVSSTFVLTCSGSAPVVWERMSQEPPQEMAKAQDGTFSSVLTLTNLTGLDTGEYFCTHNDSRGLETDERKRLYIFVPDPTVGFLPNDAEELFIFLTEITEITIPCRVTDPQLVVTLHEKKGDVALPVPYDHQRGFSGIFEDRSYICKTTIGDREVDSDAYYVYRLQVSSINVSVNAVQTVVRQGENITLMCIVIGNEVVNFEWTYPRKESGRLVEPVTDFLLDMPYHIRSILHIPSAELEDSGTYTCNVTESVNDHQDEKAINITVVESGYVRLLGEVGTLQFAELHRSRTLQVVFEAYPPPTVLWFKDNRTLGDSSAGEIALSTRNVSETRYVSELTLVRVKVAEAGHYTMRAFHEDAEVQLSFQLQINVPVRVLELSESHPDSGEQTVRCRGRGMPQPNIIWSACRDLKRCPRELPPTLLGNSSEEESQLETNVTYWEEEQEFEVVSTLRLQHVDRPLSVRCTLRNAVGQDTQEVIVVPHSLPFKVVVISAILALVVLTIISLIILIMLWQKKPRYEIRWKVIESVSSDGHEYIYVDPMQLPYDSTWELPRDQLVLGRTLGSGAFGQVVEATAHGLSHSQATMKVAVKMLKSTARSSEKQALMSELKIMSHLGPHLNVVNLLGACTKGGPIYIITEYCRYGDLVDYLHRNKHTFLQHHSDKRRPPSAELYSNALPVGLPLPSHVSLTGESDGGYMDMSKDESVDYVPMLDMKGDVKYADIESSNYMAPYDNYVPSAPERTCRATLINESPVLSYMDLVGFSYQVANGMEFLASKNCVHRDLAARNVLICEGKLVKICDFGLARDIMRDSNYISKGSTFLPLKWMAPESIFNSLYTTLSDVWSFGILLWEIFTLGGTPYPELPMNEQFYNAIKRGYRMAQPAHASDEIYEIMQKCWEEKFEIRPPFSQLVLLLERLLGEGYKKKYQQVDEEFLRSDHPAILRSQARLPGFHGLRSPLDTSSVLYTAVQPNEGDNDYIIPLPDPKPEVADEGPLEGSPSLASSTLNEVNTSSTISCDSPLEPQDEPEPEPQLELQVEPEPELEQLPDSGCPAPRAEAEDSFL
Protocol: as §1
The analysis of PDGF β-receptor phosphorylation was performed as follows. Cell lysates were subjected to immunoprecipitation using the PDGF β-receptor specific antiserum R3 [5]. The precipitates were subjected to polyacrylamide (7.5%) gel electrophoresis in presence of sodium dodecyl sulfate (SDS-PAGE) and were thereafter blotted onto a nitrocellulose membrane (Hybond C-EXTRA, Amersham). Phosphorylated proteins were detected by immunoblotting using the horseradish-peroxidase conjugated phosphotyrosine antibodies PY20 and 4G10 (Upstate Biotechnology), followed by application of secondary horseradish-peroxidase conjugated goat-anti-mouse antibody and chemoluminescence-based detection (ECL, Amersham) and autoradiography.
The data in Table 9 presents the differential potencies of the various compounds with respect to PDGFR and KDR, as was performed on intact PAEC cells expressing these receptors (see experimental methods section above).

[2] = 0.03 μM tyrphostin, [γ-32P]ATP, densitometry
[3] = absence of PDGF-BB, read-out: IC50 of basal migratory activity of HCASMC
[4] = presence of PDGF-BB, read-out: IC50 of induced migratory activity of HCASMC

Cc1nc2cc3nc(-c4ccccc4)cnc3cc2n1C [AG2033, 1,2-dimethyl-6-phenyl imidazolo[5,4-g]quinoxaline]
% of Control (percent autokinase activity) (PDGFβR; [2]): 97.9 % of Control
% of Control (percent autokinase activity) (PDGFβR; 0.1 μM tyrphostin): 37 % of Control
% of Control (percent autokinase activity) (PDGFβR; 0.3 μM tyrphostin): 17.9 % of Control
% of Control (percent autokinase activity) (PDGFβR; 1 μM tyrphostin): 13.7 % of Control
% of Control (percent autokinase activity) (PDGFβR; 3 μM tyrphostin): 9.8 % of Control
IC50 (PDGFβR): 0.07 µM
IC50 (KDR): > 10 µM
IC50 [1, 3]: < 10 µM
IC50 [1, 4]: < 3 µM
IC50 (PDGF β-receptor): 0.5 µM

Cc1nc2cc3nc(-c4cccs4)cnc3cc2n1C [AG2043, 1,2-dimethyl-6-(2-thiophene) imidazolo[5,4-g]quinoxaline]
% of Control (percent autokinase activity) (PDGFβR; [2]): 60.1 % of Control
% of Control (percent autokinase activity) (PDGFβR; 0.1 μM tyrphostin): 41.6 % of Control
% of Control (percent autokinase activity) (PDGFβR; 0.3 μM tyrphostin): 40.4 % of Control
% of Control (percent autokinase activity) (PDGFβR; 1 μM tyrphostin): 15.1 % of Control
% of Control (percent autokinase activity) (PDGFβR; 3 μM tyrphostin): 11 % of Control
IC50 (PDGFβR): 0.09 µM
IC50 (KDR): 3 µM
IC50 [1, 3]: < 10 µM
IC50 [1, 4]: ~3 µM
IC50 (PDGF β-receptor): 1 µM
